Measured values reported in the NIST ThermoML archive (doi:10.1021/je025620p).
Numbers after ± are expanded uncertainties.

Assay: isobaric coefficient of expansion
Settings: 303.15 K, Liquid

Row | SMILES | isobaric coefficient of expansion (500 kPa) | isobaric coefficient of expansion (1000 kPa) | isobaric coefficient of expansion (2000 kPa) | isobaric coefficient of expansion (4000 kPa) | isobaric coefficient of expansion (6000 kPa) | isobaric coefficient of expansion (7000 kPa) | isobaric coefficient of expansion (8000 kPa) | isobaric coefficient of expansion (9000 kPa) | isobaric coefficient of expansion (10000 kPa) | isobaric coefficient of expansion (11000 kPa) | isobaric coefficient of expansion (12000 kPa) | isobaric coefficient of expansion (13000 kPa) | isobaric coefficient of expansion (16000 kPa) | isobaric coefficient of expansion (17000 kPa) | isobaric coefficient of expansion (18000 kPa) | isobaric coefficient of expansion (19000 kPa) | isobaric coefficient of expansion (20000 kPa) | isobaric coefficient of expansion (21000 kPa) | isobaric coefficient of expansion (22000 kPa) | isobaric coefficient of expansion (23000 kPa) | also measured
1 | Cc1ccccc1 [toluene] | 0.00104 ± 2.6e-05 1/K | 0.00104 ± 2.5e-05 1/K | 0.00103 ± 2.5e-05 1/K | 0.00102 ± 2.5e-05 1/K | 0.00101 ± 2.5e-05 1/K | 0.001 ± 2.5e-05 1/K | 0.000996 ± 2.4e-05 1/K | 0.00099 ± 2.4e-05 1/K | 0.000984 ± 2.4e-05 1/K | 0.000977 ± 2.4e-05 1/K | 0.000973 ± 2.4e-05 1/K | 0.000967 ± 2.4e-05 1/K | 0.000952 ± 2.3e-05 1/K | 0.000947 ± 2.3e-05 1/K | 0.000942 ± 2.3e-05 1/K | 0.000937 ± 2.3e-05 1/K | 0.000932 ± 2.3e-05 1/K | 0.000928 ± 2.3e-05 1/K | 0.000923 ± 2.3e-05 1/K | 0.000918 ± 2.2e-05 1/K | isobaric coefficient of expansion (3000 kPa): 0.00103 ± 2.5e-05 1/K; isobaric coefficient of expansion (5000 kPa): 0.00101 ± 2.5e-05 1/K; isobaric coefficient of expansion (14000 kPa): 0.000962 ± 2.4e-05 1/K; isobaric coefficient of expansion (15000 kPa): 0.000957 ± 2.3e-05 1/K; isobaric coefficient of expansion (24000 kPa): 0.000914 ± 2.2e-05 1/K; isobaric coefficient of expansion (25000 kPa): 0.000908 ± 2.2e-05 1/K; isobaric coefficient of expansion (26000 kPa): 0.000904 ± 2.2e-05 1/K; isobaric coefficient of expansion (27000 kPa): 0.000903 ± 2.2e-05 1/K; isobaric coefficient of expansion (28000 kPa): 0.000896 ± 2.2e-05 1/K; isobaric coefficient of expansion (29000 kPa): 0.000896 ± 2.2e-05 1/K; isobaric coefficient of expansion (30000 kPa): 0.000892 ± 2.2e-05 1/K
2 | CCCCCC [hexane] | 0.00135 ± 3.3e-05 1/K | 0.00135 ± 3.3e-05 1/K | 0.00133 ± 3.3e-05 1/K | 0.0013 ± 3.2e-05 1/K | 0.00126 ± 3.1e-05 1/K | 0.00125 ± 3.1e-05 1/K | 0.00124 ± 3e-05 1/K | 0.00122 ± 3e-05 1/K | 0.00121 ± 3e-05 1/K | 0.0012 ± 2.9e-05 1/K | 0.00119 ± 2.9e-05 1/K | 0.00118 ± 2.9e-05 1/K | 0.00115 ± 2.8e-05 1/K | 0.00114 ± 2.8e-05 1/K | 0.00113 ± 2.8e-05 1/K | 0.00112 ± 2.7e-05 1/K | 0.00111 ± 2.7e-05 1/K | 0.0011 ± 2.7e-05 1/K | 0.00109 ± 2.7e-05 1/K | 0.00108 ± 2.7e-05 1/K | isobaric coefficient of expansion (2700 kPa): 0.00132 ± 3.2e-05 1/K; isobaric coefficient of expansion (4900 kPa): 0.00129 ± 3.2e-05 1/K; isobaric coefficient of expansion (14100 kPa): 0.00116 ± 2.9e-05 1/K; isobaric coefficient of expansion (14500 kPa): 0.00116 ± 2.8e-05 1/K; isobaric coefficient of expansion (24500 kPa): 0.00107 ± 2.6e-05 1/K; isobaric coefficient of expansion (25000 kPa): 0.00107 ± 2.6e-05 1/K; isobaric coefficient of expansion (26000 kPa): 0.00106 ± 2.6e-05 1/K; isobaric coefficient of expansion (27000 kPa): 0.00105 ± 2.6e-05 1/K; isobaric coefficient of expansion (28000 kPa): 0.00104 ± 2.6e-05 1/K; isobaric coefficient of expansion (29000 kPa): 0.00104 ± 2.5e-05 1/K; isobaric coefficient of expansion (30000 kPa): 0.00103 ± 2.5e-05 1/K
3 | C1CCCCC1 [cyclohexane] | 0.00118 ± 2.9e-05 1/K | 0.00117 ± 2.9e-05 1/K | 0.00116 ± 2.8e-05 1/K | 0.00114 ± 2.8e-05 1/K | 0.00113 ± 2.8e-05 1/K | 0.00112 ± 2.7e-05 1/K | 0.00111 ± 2.7e-05 1/K | 0.0011 ± 2.7e-05 1/K | 0.00109 ± 2.7e-05 1/K | 0.00109 ± 2.7e-05 1/K | 0.00108 ± 2.6e-05 1/K | 0.00107 ± 2.6e-05 1/K | 0.00105 ± 2.6e-05 1/K | 0.00104 ± 2.6e-05 1/K | 0.00104 ± 2.5e-05 1/K | 0.00103 ± 2.5e-05 1/K | 0.00103 ± 2.5e-05 1/K | 0.00102 ± 2.5e-05 1/K | 0.00101 ± 2.5e-05 1/K | 0.00101 ± 2.5e-05 1/K | isobaric coefficient of expansion (3000 kPa): 0.00115 ± 2.8e-05 1/K; isobaric coefficient of expansion (5000 kPa): 0.00113 ± 2.8e-05 1/K; isobaric coefficient of expansion (14000 kPa): 0.00106 ± 2.6e-05 1/K; isobaric coefficient of expansion (15000 kPa): 0.00106 ± 2.6e-05 1/K; isobaric coefficient of expansion (24000 kPa): 0.001 ± 2.5e-05 1/K; isobaric coefficient of expansion (25000 kPa): 0.000994 ± 2.4e-05 1/K; isobaric coefficient of expansion (26000 kPa): 0.000988 ± 2.4e-05 1/K; isobaric coefficient of expansion (27000 kPa): 0.000985 ± 2.4e-05 1/K; isobaric coefficient of expansion (28000 kPa): 0.000977 ± 2.4e-05 1/K; isobaric coefficient of expansion (29000 kPa): 0.000975 ± 2.4e-05 1/K; isobaric coefficient of expansion (30000 kPa): 0.00097 ± 2.4e-05 1/K
4 | CCCCCCC [heptane] | 0.00125 ± 3.1e-05 1/K | 0.00124 ± 3e-05 1/K | 0.00123 ± 3e-05 1/K | 0.00121 ± 3e-05 1/K | 0.00118 ± 2.9e-05 1/K | 0.00117 ± 2.9e-05 1/K | 0.00116 ± 2.8e-05 1/K | 0.00115 ± 2.8e-05 1/K | 0.00114 ± 2.8e-05 1/K | 0.00113 ± 2.8e-05 1/K | 0.00112 ± 2.7e-05 1/K | 0.00111 ± 2.7e-05 1/K | 0.00108 ± 2.7e-05 1/K | 0.00108 ± 2.6e-05 1/K | 0.00107 ± 2.6e-05 1/K | 0.00106 ± 2.6e-05 1/K | 0.00105 ± 2.6e-05 1/K | 0.00104 ± 2.6e-05 1/K | 0.00104 ± 2.5e-05 1/K | 0.00103 ± 2.5e-05 1/K | isobaric coefficient of expansion (3000 kPa): 0.00122 ± 3e-05 1/K; isobaric coefficient of expansion (5000 kPa): 0.00119 ± 2.9e-05 1/K; isobaric coefficient of expansion (14000 kPa): 0.0011 ± 2.7e-05 1/K; isobaric coefficient of expansion (15000 kPa): 0.00109 ± 2.7e-05 1/K; isobaric coefficient of expansion (24000 kPa): 0.00102 ± 2.5e-05 1/K; isobaric coefficient of expansion (25000 kPa): 0.00101 ± 2.5e-05 1/K; isobaric coefficient of expansion (26000 kPa): 0.00101 ± 2.5e-05 1/K; isobaric coefficient of expansion (27000 kPa): 0.001 ± 2.5e-05 1/K; isobaric coefficient of expansion (28000 kPa): 0.000995 ± 2.4e-05 1/K; isobaric coefficient of expansion (29000 kPa): 0.000988 ± 2.4e-05 1/K; isobaric coefficient of expansion (30000 kPa): 0.000983 ± 2.4e-05 1/K
